This note sets out measurements from ChEMBL document CHEMBL3044965, “Design, synthesis, and antimalarial evaluation of thiazole-derived amino acids” (Med Chem Res, 2008).

The structures appear in SMILES notation. Active and inactive are the calls of the source. No cut-off for these calls is given here.

In data set [1] the test system is Plasmodium falciparum. As to the kind of experiment: Antiplasmodial activity against chloroquine-sensitive Plasmodium falciparum assessed as inhibition of [3H]hypoxanthine incorporation incubated for 20 to 24 hr prior to [3H]hypoxanthine addition measured after 24 grs by microbeta scintillation counting. The data set is classed as functional, organism-based.
Data set [2] deals with Plasmodium falciparum. As to the kind of experiment: Antiplasmodial activity against chloroquine-resistant Plasmodium falciparum assessed as inhibition of [3H]hypoxanthine incorporation incubated for 20 to 24 hr prior to [3H]hypoxanthine addition measured after 24 grs by microbeta scintillation counting. The data set is classed as functional, organism-based.
In data set [3] the test system is Plasmodium falciparum. In words: Antiplasmodial activity against chloroquine-sensitive Plasmodium falciparum by schizont maturation assay. Format: functional, organism-based.
Data set [4] in a line: Cytotoxicity against Homo sapiens (human) RBC assessed as cell lysis. As to conditions: erythrocyte. Format: cell-based.
In data set [5] the test system is Plasmodium falciparum. In words: Antiplasmodial activity against chloroquine-resistant Plasmodium falciparum by schizont maturation assay. Format: functional, organism-based.

With `CC(C)(C)OC(=O)N[C@@H](CSCc1ccccc1)C(=O)Nc1nccs1`, in the data set with Plasmodium falciparum [1], the IC50 came to 9.11 µM and the concentration for an effect of 90% (IC90) worked out at 12.6 µM. In addition, in the data set with Plasmodium falciparum [2], the IC50 worked out at 10.8 µM and the IC90 came to 15.5 µM.
Consider `CCN(CC)CCCC(C)Nc1ccnc2cc(Cl)ccc12` (stereo not drawn) [CHLOROQUINE], for which the 90% effect concentration (IC90) in the data set with Plasmodium falciparum [1] is 0.05 µM; with Plasmodium falciparum [2], 0.25 µM.
In the case of `CC[C@H](C)[C@H](NC(=O)OC(C)(C)C)C(=O)Nc1nccs1`, the values for the 50% inhibitory concentration (IC50) with Plasmodium falciparum [1] and with Plasmodium falciparum [2] were 6.32 µM and 7.84 µM, respectively. Further, the results for the IC90 in the data set on Plasmodium falciparum [1] and in the data set on Plasmodium falciparum [2] were 9.74 µM and 11.1 µM, respectively.
On to `N[C@H](Cc1ccccc1)C(=O)Nc1nccs1`, for which, in the data set with Plasmodium falciparum [1], the IC50 turned out to be 16.1 µM and the concentration for an effect of 90% (IC90) was found to be 33.5 µM. Moreover, in the data set with Plasmodium falciparum [2], the half-inhibitory concentration (IC50) was 17.4 µM and the IC90 was found to be 45.7 µM.
The matching figures for `N[C@H](Cc1c[nH]c2ccccc12)C(=O)Nc1nccs1`: 11.1 µM, 16.1 µM, 19.5 µM and 17.1 µM.
`CC1CCCN1[C@H](NC(=O)OC(C)(C)C)C(=O)Nc1nccs1` (stereo partly drawn): the result in the data set with Plasmodium falciparum [3] was Active. Moreover, in the data set on Plasmodium falciparum [1], the concentration for half-maximal inhibition (IC50) came out at 4.89 µM, the IC90 came out at 11.1 µM and the IC99 is 14.9 µM. Further, the Activity entry in data set [4] is listed as “Non-toxic”. Besides, the outcome with Plasmodium falciparum [5] was Active. Moreover, in the data set on Plasmodium falciparum [2], the IC50 came out at 6.12 µM and the IC90 amounted to 12.7 µM.
Consider `CC(C)(C)OC(=O)N[C@@H](Cc1ccccc1)C(=O)Nc1nccs1`, for which, in the data set on Plasmodium falciparum [1], the IC50 is 5.62 µM and the IC90 turned out to be 16.3 µM. Also, in the data set with Plasmodium falciparum [2], the IC50 stood at 7.41 µM and the IC90 came to 18.6 µM.
As for `CC(C)(C)OC(=O)N[C@@H](Cc1c[nH]c2ccccc12)C(=O)Nc1nccs1`, the outcome with Plasmodium falciparum [3] was Active. In the data set with Plasmodium falciparum [1], the half-maximal inhibitory concentration (IC50) amounted to 3.45 µM, the IC90 turned out to be 7.89 µM and the IC99 came out at 18.1 µM. Moreover, the Activity result in data set [4] is listed as “Non-toxic”. Besides, in the data set on Plasmodium falciparum [5], the outcome was Active. Also, in the data set on Plasmodium falciparum [2], the IC50 was 4.87 µM and the IC90 amounted to 9.12 µM.
Take `CC(C)C[C@H](NC(=O)OC(C)(C)C)C(=O)Nc1nccs1`: in the data set with Plasmodium falciparum [1], the half-maximal inhibitory concentration (IC50) turned out to be 6.31 µM and the 90% effect concentration (IC90) was determined as 14.5 µM. Besides, in the data set on Plasmodium falciparum [2], the IC50 amounted to 8.96 µM and the IC90 was 18.3 µM.
On to `CC(C)[C@H](NC(=O)OC(C)(C)C)C(=O)Nc1nccs1`, for which, in the data set with Plasmodium falciparum [1], the half-inhibitory concentration (IC50) worked out at 9.32 µM and the 90% effect concentration (IC90) is 12.5 µM. Also, in the data set on Plasmodium falciparum [2], the IC50 was 10.9 µM and the IC90 worked out at 18.6 µM.
As to `CSCC[C@H](NC(=O)OC(C)(C)C)C(=O)Nc1nccs1`, in the data set on Plasmodium falciparum [1], the IC50 turned out to be 10.2 µM and the IC90 amounted to 29.1 µM. In addition, in the data set on Plasmodium falciparum [2], the IC50 was 18.2 µM and the IC90 was found to be 31.4 µM.
Regarding `CC(C)(C)OC(=O)NCC(=O)Nc1nccs1`, in the data set with Plasmodium falciparum [1], the concentration for half-maximal inhibition (IC50) was 14.3 µM and the concentration for an effect of 90% (IC90) was found to be 21.3 µM. Moreover, in the data set with Plasmodium falciparum [2], the concentration for half-maximal inhibition (IC50) came out at 17.5 µM and the IC90 turned out to be 22.4 µM.
The matching figures for `C[C@H](NC(=O)OC(C)(C)C)C(=O)Nc1nccs1`: 12.1 µM, 24.5 µM, 18.7 µM and 27.2 µM.

As a reminder, the IC50 is the concentration needed to halve the response being measured. What is called IC90 is the concentration needed for an effect of 90%. By IC99 is commonly meant the point of the concentration-response curve where the effect stands at 99%.
